Results published in publication PMC4257840 (Journal of Medicinal Chemistry, 2014).

Columns and labels:
Der p 1 [1] = biological target: T1, Der p 1 (Dermatophagoides pteronyssinus, UniProt P08176); assay: biochemical; type: biochemical; details: mean ± SE
T1 sequence (P08176 99-320): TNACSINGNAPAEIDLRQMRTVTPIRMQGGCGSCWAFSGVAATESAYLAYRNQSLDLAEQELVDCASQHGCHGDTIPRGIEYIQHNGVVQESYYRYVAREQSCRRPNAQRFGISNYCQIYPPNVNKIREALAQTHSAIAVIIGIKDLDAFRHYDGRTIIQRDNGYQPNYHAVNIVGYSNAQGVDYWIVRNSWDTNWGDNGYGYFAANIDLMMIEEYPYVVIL
Method: Automated screening of inhibitory activity toward group 1 HDM peptidase allergens was performed as described elsewhere[25],[43] with the minor modification that Der p 1 or Der f 1 were incubated with inhibitors for 20 min prior to initiation of reactions by addition of substrate. In initial screening, the activity of each compound was measured using a series of 10 doubling dilutions from a starting concentration of 50 μM. […] Assays were performed in triplicate for calculation of mean ± SE IC50 values.

human liver Cat B = human liver Cat B (Homo sapiens, UniProt P07858); assay: Cathepsin B inhibition assay; details: read-out: Cat B IC50; mean ± SE
Method: Inhibition of Cat B was measured as described with modifications.[25] […] Progress curves were followed at 30 °C by detection of fluorescence at 320/420 nm (excitation/emission).
(§3) In all cases, for reactions involving inhibitors, the amount of reaction buffer was adjusted to 60 μL, the inhibitor added as a 10 μL aliquot, and incubated for 20 min with the enzyme prior to reaction start.

[2] = test system: rat alveolar macrophage line NR8383; assay: Stability in the presence of airway macrophages; type: in vitro ADME
Method: Stability in the presence of epithelial cells and ma crophages.
NR8383 Airway macroph a ges
were grown in suspension culture in F12K, collected b y centrifugation, washed in serum-free
exposed to test compounds in serum-free F12K at a standard concentration of 100 nM in a 5%
CO2 environment at 37 °C. Samples were removed at selected time points for quantitative
Assa ys w ere p er formed in replicate and t he data ex pressed as mean ± SE.

Der p 1 [3] = biological target: T1, Der p 1; set-up: method as in PMID 9871695; details: irreversible acyloxymethyl ketone inhibitors, Figure 1; cited from earlier work
[4] = Measurement of LogD7.4 (n-octanol/PBS shake); type: physicochemical; details: for logD at 1.5 h: single determination, n-octanol/PBS pH 7.4, read-out: Log D7.4
Method: Appendix 4. Measurement of LogD7.4
Test compounds (~1 mg) were weighed into 2 mL HPLC vials. n- Octanol (0.7 mL), pre-saturated with 10 mM phosphate buffered saline pH7.4 (PBS), was added to each vial followed b y PBS (0. 7 mL), which had been pre-saturat ed with n-octanol. The mixtures were shaken for 90 min and then centrifuged for 10 min at 4,000 rpm. The upper organic l ayer (0.2 m L) and the aqueous la yer (0.5 mL) were removed from each vial and anal yz e d b y LC -MS. Mass spect ral anal ysis was used to confirm peak identity whilst the concentration of compound was assessed by a diode arra y det ecto r. The logD for each compound was calculated b y takin g th e lo g of its concentration ratio between the oct anol and aqueous la ye r s.Given the robustness of the assa y and the fact that the info rmation was us ed onl y for gen eral guid ance, thes e measu rements were based on singlicate det erminations.

[5] = Plasma protein binding, Rapid Equilibrium Dialysis; type: in vitro ADME; details: both sexes, Sprague Dawley, plasma (EDTA K2, pooled), rat plasma, 4 h at 37 °C, read-out: PPB (converted)
Method: (§1) Appendix 2. Pharmaco kinetics an d P l a s ma Protein Binding […]
(§2) Plasma Protein Binding Assay. PPB was determined with a Rapid Equilibrium Dialysis device using 8 kDa molecular weight cut-off inserts (Fisher Scientific UK Ltd, Leicest ershire, UK) as described b y the manufacturer. R at (Sprague Dawl e y strain) plasma EDTA K2 (mixed gender, pooled, SeraLab, West Sussex, UK) was thawed and centrifuged at 13,000 x g for 10 min to remove precipitates before being spiked with compounds (5 µM). The concentrations of compounds in the plasma and buffer chambers were determined b y LC -MS-MS (AB Sciex 3200 QTrap) anal ysis after 4 h incubation at 37 °C. Binding was calculated from the concentration percentage in both chambers as shown below. Assays were p erfo rmed in replicate and the data

[6] = Pharmacokinetics after oral and iv dosing to rats; type: in vivo, Sprague-Dawley rat; details: for Cmax / bioavailability: male, Sprague-Dawley, plasma; for Cmax / bioavailability / free conc Cmax: rat; for Cmax / free conc Cmax: 5 mg/kg po; for bioavailability: po, 5 mg/kg, read-out: F % (bioavailability)
Method: as §1
Pharma cokinetics. In vivo PK characteristics were determined using non- fasted Sprague-Dawle y rats (mal e, 200-300 g, 10- 16 weeks of age) with groups of three animals per route per compound. Soluble formulations were developed and verified b y HP LC/UV s o that compounds were dosed discretel y b y the iv (1 mg/kg, 1 mL/kg) and po (5 mg/kg, 5 mL/kg) routes. Blood samples were obtained at various times after dosing and plasma prepared for LC -MS-MS quantification of the test substance after inclusion of an intern al standard . PK p aramet ers were calculated usin g a non -compartmental model in WinNonlin v5.2.
as §2

[7] = test system: nonsensitized rats challenged with a natural mixture of HDM allergens; details: for duration of protection: trend of inhibition of eosinophil recruitment with increasing pre-treatment interval: i.t. aerosol typically 60-360 min prior to allergen challenge, unsensitised BN rats; for efficacy, inhibition of eosinophil recruitment: rat, in vivo
Der f 1 = Der f 1 (Dermatophagoides farinae, UniProt P16311); assay: Group 1 HDM peptidase allergen inhibition assay (Der f 1); type: biochemical, D. farinae; details: in vitro enzymatic assay, mean ± SE
Method: Automated screening of inhibitory activity toward group 1 HDM peptidase allergens was performed as described elsewhere[25],[43] with the minor modification that Der p 1 or Der f 1 were incubated with inhibitors for 20 min prior to initiation of reactions by addition of substrate. In initial screening, the activity of each compound was measured using a series of 10 doubling dilutions from a starting concentration of 50 μM. Compounds showing optimizable activity were cherry-picked for multiple (up to six) rounds of rescreening to confirm activity and stability and to determine IC50 values over a range of concentrations that were compound-directed by initial screening. Assays were performed in triplicate for calculation of mean ± SE IC50 values.

[8] = test system: sensitized BN rats challenged with mixed HDM allergens; assay: HDM allergen challenge of sensitized BN rats, BAL cells; type: in vivo, Brown Norway rat; details: single dose 12 μg/kg (18 nmol/kg) 2 h prior to challenge, BAL 48 h
Description: For other studies, rats were actively sensitized to a natural mixture of HDM allergens prepared from laboratory cultures of Dermatophagoides pteronyssinus. Animals were sensitized by the ip route in the absence of additional adjuvant on day 0, 7, and 14. […] Negative control groups comprised naïve, unsensitized animals or those sham-sensitized with vehicle solution.
Test ADIs were delivered as intratracheal aerosols of 25–30 μm mass median diameter from a Penn-Century IA-1B microsprayer at various times prior to allergen challenge. Allergen or vehicle challenge was similarly delivered by Penn-Century microsprayer on day 21 of the protocol. These procedures were conducted under anesthesia with isoflurane in oxygen. Test ADIs were generally dosed in a constant 50:1 molar ratio to the Der p 1 content of the allergen challenge mixture.
Animals were killed by sodium pentobarbital overdose 48 h after allergen challenge because this is the optimal sampling point to assess the recruitment of eosinophils (our unpublished observations). The airways were lavaged with 3 × 4 mL aliquots of Hanks’ Balanced Salt Solution and the recovered cells pooled and counted automatically (ADVIA; Bayer Healthcare, Diagnostics Division, UK). […] Cells were counted by an independent observer using light microscopy under oil immersion (×1000). […]

recombinant human Cat S = recombinant human Cat S (Homo sapiens, UniProt P25774); assay: Cathepsin S inhibition assay; type: biochemical; details: in vitro enzymatic assay, mean ± SE; read-out: Cat S
Method: as §3

[9] = 5 mg/kg po compared with 1 mg/kg iv, nonfasted Sprague–Dawley rats, mean ± SE, n = 3

Sequence of Der f 1 (P16311 99-321): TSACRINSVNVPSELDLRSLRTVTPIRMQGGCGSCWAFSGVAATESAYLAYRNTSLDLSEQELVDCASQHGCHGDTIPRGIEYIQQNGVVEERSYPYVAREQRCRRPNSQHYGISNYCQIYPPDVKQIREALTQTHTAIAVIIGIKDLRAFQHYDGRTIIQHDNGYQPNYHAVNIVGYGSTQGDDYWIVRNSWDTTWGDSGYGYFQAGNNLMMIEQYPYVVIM
Sequence of recombinant human Cat S (P25774 115-331): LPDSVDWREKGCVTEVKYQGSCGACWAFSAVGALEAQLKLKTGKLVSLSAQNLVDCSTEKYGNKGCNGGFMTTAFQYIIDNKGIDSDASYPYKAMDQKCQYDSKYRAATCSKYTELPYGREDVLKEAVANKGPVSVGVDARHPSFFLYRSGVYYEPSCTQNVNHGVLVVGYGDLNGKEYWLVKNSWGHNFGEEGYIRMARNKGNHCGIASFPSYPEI

| SMILES | IC50 (Der p 1 [1]) [µM] | IC50 (human liver Cat B) [µM] | logD at 1.5 h [4] | fraction unbound at 4 h, 5 µM [5] | Cmax ([6]; mean ± SE, n = 3) [nM] | bioavailability [6, 9] [%] | free conc Cmax [6] [nM] | duration of protection: trend of inhibition of eosinophil recruitment with increasing pre-treatment interval [7] | also measured |
| --- | --- | --- | --- | --- | --- | --- | --- | --- | --- |
| CC(C)C(NC(=O)[C@H](C)NC(=O)[C@H](Cc1ccccc1)NC(=O)c1ccccc1)C(=O)C(=O)NC1CCCCC1 (mixture of isomers) [Compound 19] | 0.018 ± 0.002 | 0.052 ± 0.005 | – | – | – | – | – | – | remaining unchanged (processing by airway macrophages) ([2]; after 2 h): ~70% |
| CCCC[C@H](NC(=O)[C@H](C)NC(=O)[C@@H](NC(=O)c1ccccc1)C(C)C)C(=O)COC(=O)c1ccccc1 [Compound 1] | – | – | – | – | – | – | – | – | Kobs/[I] (Der p 1 [3]): 210000 M⁻¹ s⁻¹ |
| CCCC[C@H](NC(=O)[C@H](C)NC(=O)[C@@H](NC(=O)c1ccccc1)C(C)C)C(=O)COC(=O)c1c(C(F)(F)F)cccc1C(F)(F)F [Compound 2] | – | – | – | – | – | – | – | – | Kobs/[I] (Der p 1 [3]): 1.6e+06 M⁻¹ s⁻¹ |
| CCCC[C@H](NC(=O)[C@H](C)NC(=O)[C@H](Cc1ccccc1)NC(=O)c1ccccc1)C(=O)C(=O)NC1CCCCC1 [Compound 5, N-{(S)-1-[(S)-1-((S)-1-Cyclohexylaminooxalyl-pentylcarbamoyl)-ethylcarbamoyl]-2-phenyl-ethyl}-benzamide] | – | – | – | – | – | – | – | – | degraded by airway macrophages ([2]; over a 2 h period): > 50% |
| CC(C)[C@H](NC(=O)[C@H](C)NC(=O)[C@@H](NC(=O)c1ccccc1)C(C)(C)C)C(=O)C(=O)NC1CCCCC1 [Compound 22, N-{(S)-1-[(S)-1-((S)-1-Cyclohexylaminooxalyl-2-methyl-propylcarbamoyl)-ethylcarbamoyl]-2,2-dimethyl-propyl}-benzamide] | 0.014 ± 0.003 | 0.378 ± 0.027 | 3.9 | – | – | – | – | – | degradation by airway macrophages ([2]; over 2 h): no significant degradation |
| CC(C)[C@H](NC(=O)[C@H](C)NC(=O)[C@@H](N1Cc2ccccc2C1=O)C(C)(C)C)C(=O)C(=O)NCc1ccccc1 [Compound 28, (S)-3-{(S)-2-[(S)-3,3-Dimethyl-2-(1-oxo-1,3-dihydro-isoindol-2-yl)-butyrylamino]-propionylamino}-4-methyl-2-oxo-pentanoic Acid Benzylamide] | 0.007 ± 0.001 | 0.429 ± 0.065 | 3.6 | 0.02 | 663 ± 26 | 20 ± 1 | 11 ± 0 | – | – |
| CC(C)[C@H](NC(=O)[C@H](C)NC(=O)[C@@H](NC(=O)c1ccncc1)C(C)(C)C)C(=O)C(=O)NC1CCCCC1 [Compound 29, N-{(S)-1-[(S)-1-((S)-1-Cyclohexylaminooxalyl-2-methyl-propylcarbamoyl)-ethylcarbamoyl]-2,2-dimethyl-propyl}-isonicotinamide] | 0.013 ± 0.001 | 0.231 ± 0.017 | 2.8 | – | – | – | – | rise to a peak | – |
| CC(C)[C@H](NC(=O)[C@H](C)NC(=O)[C@@H](NC(=O)C1CC[N+](C)(C)CC1)C(C)(C)C)C(=O)C(=O)NCc1ccccc1.O=C[O-] [Compound 32, 4-{(S)-1-[(S)-1-((S)-1-Benzylaminooxalyl-2-methyl-propylcarbamoyl)-ethylcarbamoyl]-2,2-dimethyl-propylcarbamoyl}-1,1-dimethyl-piperidinium Formate] | – | 0.274 ± 0.044 | -0.9 | 0.388 | 20 ± 13 | 1 | 8 ± 0 | – | efficacy, inhibition of eosinophil recruitment [7]: Good efficacy; IC50 (Der f 1): 0.004 µM; eosinophil recruitment [8]: marked inhibition; increase in total nucleated cells recoverable by BAL [8]: significantly blunted; F % (bioavailability) [6, 9]: 0.6 ± 0.2% |
| CC(C)[C@H](NC(=O)[C@H](C)NC(=O)[C@@H](NC(=O)c1ccccc1)C(C)(C)C)C(=O)C(=O)NC1CC1 [Compound 35] | 0.017 ± 0.001 | 0.417 ± 0.025 | 2.4 | 0.155 | 1140 ± 268 | 90 ± 11 | 176 ± 0 | rise to well-maintained | logD ([4]; pH 7.4, versus compound 22, read-out: reduction of measured log D on replacing cyclohexyl (22) by cyclopropyl): ~1.5 |
| CC(C)[C@H](NC(=O)[C@H](C)NC(=O)[C@H](Cc1ccccc1)NC(=O)c1ccccc1)C(=O)C(=O)NCC(=O)N1CCN(C)CC1 [Compound 45, N-[(S)-1-((S)-1-{(S)-2-Methyl-1-[2-(4-methyl-piperazin-1-yl)-2-oxo-ethylaminooxalyl]-propylcarbamoyl}-ethylcarbamoyl)-2-phenyl-ethyl]-benzamide] | 0.014 ± 0.001 | 0.544 ± 0.04 | 1.3 | – | – | – | – | waned | – |
| CC(C)[C@H](NC(=O)[C@H](C)NC(=O)[C@H](Cc1ccccc1)NC(=O)c1ccccc1)C(=O)C(=O)NCC(=O)N1CCOCC1 [Compound 47, N-((S)-1-{(S)-1-[(S)-2-Methyl-1-(2-morpholin-4-yl-2-oxo-ethylaminooxalyl)-propylcarbamoyl]-ethylcarbamoyl}-2-phenyl-ethyl)-benzamide] | 0.009 ± 0.001 | 0.088 ± 0.01 | 1.7 | – | – | – | – | rise to a peak | – |
| CC(C)[C@H](NC(=O)[C@H](C)NC(=O)[C@H](Cc1ccccc1)NC(=O)c1ccccc1)C(=O)C(=O)NCC(=O)N1CC[N+](C)(C)CC1.O=C[O-] [Compound 52, 4-(2-{(S)-3-[(S)-2-((S)-2-Benzoylamino-3-phenyl-propionylamino)-propionylamino]-4-methyl-2-oxo-pentanoylamino}-acetyl)-1,1-dimethyl-piperazin-1-ium Formate] | – | > 2.5 | -0.6 | 0.365 | 7 ± 2 | 0 | 3 ± 0 | – | efficacy, inhibition of eosinophil recruitment [7]: Good efficacy; IC50 (Der f 1): 0.011 ± 0.001 µM; IC50 (recombinant human Cat S): 0.114 ± 0.007 µM |
| CC(C)[C@H](NC(=O)[C@H](C)NC(=O)[C@H](Cc1ccccc1)NC(=O)c1cccc2ccccc12)C(=O)C(=O)NCC(=O)N1CCN(C)CC1 [Compound 53, Naphthalene-1-carboxylic Acid [(S)-1-((S)-1-{(S)-2-Methyl-1-[2-(4-methyl-piperazin-1-yl)-2-oxo-ethylaminooxalyl]-propylcarbamoyl}-ethylcarbamoyl)-2-phenyl-ethyl]-amide] | 0.02 ± 0.003 | 0.54 ± 0.028 | 2 | – | – | – | – | waned | – |
